Assay results from patent publication US9168275B2 (priority 2000, dated 2015).

Key:
[1] = biological target: tetanus toxin (Clostridium tetani, UniProt P04958); conditions: cited from earlier work
[2] = test system: clostridia; conditions: cited from earlier work
[3] = in vivo, po; cited from earlier work
[4] = test system: Bacteroides; conditions: cited from earlier work
[5] = test system: person with chronic diarrhea and autism; assay type: in vivo, human
Experimental: Diarrhea began after three 10 day courses of broad spectrum antimicrobials prescribed over a six week period for “chronic otitis media.” There was no blood or pus in the stool nor associated constitutional symptoms. There was profound behavioral and developmental deterioration, along with emergence of severe autistic features.
A 12 week therapeutic trial of oral vancomycin (125 mg QID) was begun with expanded observations by a pediatric neuropsychologist pre- and post-treatment. At baseline, the child was not on a special diet nor was […] taking any vitamin supplements. Three days after initiation of the vancomycin therapy, a hyperactivity pattern emerged which lasted for four days. […] became affectionate and relatively calm. […] promptly achieved toilet training and increased vocabulary. Follow-up behavioral observations after eight weeks of therapy noted an increase in on-task performance, compliance with parental requests, awareness of environmental surroundings, and persistence when engaging in positive activities. […] The child's educational therapies remained unchanged for both six months before and during the vancomycin trial. […] Though still improved over baseline, […] eventually lost most of the initial gains.

[6] = test system: children with regressive onset autism; conditions: in vivo

tetanus toxin, sequence (P04958 whole entry, looked up): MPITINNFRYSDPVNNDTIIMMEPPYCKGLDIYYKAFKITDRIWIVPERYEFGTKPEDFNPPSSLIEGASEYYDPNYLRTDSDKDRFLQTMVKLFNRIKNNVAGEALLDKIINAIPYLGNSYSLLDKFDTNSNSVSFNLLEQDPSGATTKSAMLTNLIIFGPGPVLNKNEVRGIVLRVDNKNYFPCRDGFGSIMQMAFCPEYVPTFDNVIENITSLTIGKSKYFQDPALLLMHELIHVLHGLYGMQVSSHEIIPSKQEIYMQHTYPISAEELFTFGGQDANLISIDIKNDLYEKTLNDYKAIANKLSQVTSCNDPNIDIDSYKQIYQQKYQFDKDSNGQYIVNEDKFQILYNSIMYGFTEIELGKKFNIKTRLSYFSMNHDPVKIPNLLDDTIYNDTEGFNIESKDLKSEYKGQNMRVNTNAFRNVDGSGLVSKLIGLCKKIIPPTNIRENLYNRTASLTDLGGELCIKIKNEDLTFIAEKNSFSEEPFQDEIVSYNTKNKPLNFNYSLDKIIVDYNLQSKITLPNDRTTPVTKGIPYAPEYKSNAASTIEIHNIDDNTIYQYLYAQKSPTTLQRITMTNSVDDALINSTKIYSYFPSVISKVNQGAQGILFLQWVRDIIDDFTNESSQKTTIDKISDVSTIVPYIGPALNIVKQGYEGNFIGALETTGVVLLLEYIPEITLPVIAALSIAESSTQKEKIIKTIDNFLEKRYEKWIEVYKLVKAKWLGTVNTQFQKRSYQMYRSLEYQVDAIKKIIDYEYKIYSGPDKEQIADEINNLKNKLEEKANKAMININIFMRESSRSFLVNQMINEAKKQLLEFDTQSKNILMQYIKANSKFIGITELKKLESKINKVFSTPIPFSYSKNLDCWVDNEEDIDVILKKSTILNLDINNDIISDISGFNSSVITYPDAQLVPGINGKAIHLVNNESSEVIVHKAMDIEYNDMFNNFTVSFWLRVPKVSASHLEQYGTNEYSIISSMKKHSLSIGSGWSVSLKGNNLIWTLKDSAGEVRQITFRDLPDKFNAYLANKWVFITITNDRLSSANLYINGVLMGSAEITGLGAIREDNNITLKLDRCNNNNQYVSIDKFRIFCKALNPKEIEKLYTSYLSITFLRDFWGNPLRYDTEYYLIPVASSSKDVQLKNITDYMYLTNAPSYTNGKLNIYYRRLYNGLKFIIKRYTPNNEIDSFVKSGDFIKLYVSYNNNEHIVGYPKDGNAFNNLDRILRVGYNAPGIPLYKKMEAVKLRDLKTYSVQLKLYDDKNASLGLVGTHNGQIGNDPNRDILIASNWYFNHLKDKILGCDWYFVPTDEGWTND

C[C@H](CS)C(=O)N1CCC[C@H]1C(=O)O [Captopril]
Effect on tetanus toxin in vitro [1]: inactivates

CC1(C)S[C@@H]2[C@H](NC(=O)[C@H](N)c3ccccc3)C(=O)N2[C@H]1C(=O)O [ampicillin]
Activity against clostridia [2]: active

CN[C@H](CC(C)C)C(=O)N[C@H]1C(=O)N[C@@H](CC(N)=O)C(=O)N[C@H]2C(=O)N[C@H]3C(=O)N[C@H](C(=O)N[C@H](C(=O)O)c4cc(O)cc(O)c4-c4cc3ccc4O)[C@H](O)c3ccc(c(Cl)c3)Oc3cc2cc(c3O[C@@H]2O[C@H](CO)[C@@H](O)[C@H](O)[C@H]2O[C@H]2C[C@](C)(N)[C@H](O)[C@H](C)O2)Oc2ccc(cc2Cl)[C@H]1O [vancomycin]
Activity against clostridia [2]: effective
Concentration in the intestines [3]: high concentration
Activity against Bacteroides [4]: effective
Repetitive and self-stimulatory behaviors ([5]; after eight weeks of therapy): significant reduction
Course shortly after discontinuation ([5]; after vancomycin discontinuation): behavioral deterioration
Clinical response ([5]; oral vancomycin 125 mg QID, 12 weeks): rapid and dramatic clinical improvement
Analog rating scale, improvement in behavior: Wilcoxon Signed Ranks Z [6]: −2.9
Analog rating scale, improvement in behavior: p [6]: 0.003
Analog rating scale, improvement in communication: Wilcoxon Signed Ranks Z [6]: 2.9
Analog rating scale, improvement in communication: p [6]: 0.003
Analog ratings at long-term follow-up [6]: returned towards baseline
Basic blood, stool and urine tests [6]: unremarkable
Brief (1-4 days) period of hyperactivity: children affected [6]: six
Day of marked lethargy: subjects affected [6]: One
Blinded assessment of coded, paired videotapes: possible deterioration ([6]; po): one
